Measurements reported in patent publication US9255295B2, “Method for evaluating the sensitizing potential of a test compound” (IMMUNOSEARCH, priority 2010, dated 2016).

Key:
EPISKIN model = assay: Sensitizing power: sensitizing potential retested at successive dilutions in the EPISKIN model
Excerpt: “Sensitizing power” means the ability of a given compound to induce a sensitization reaction according to the concentration of said compound. Sensitizing power is dependent on the quantity of substance necessary to induce sensitization. Thus, the lower the sensitizing quantity necessary to induce a sensitizing response, the stronger the sensitizer is, and vice versa, the higher the sensitizing quantity necessary to induce a sensitizing response, the weaker the sensitizer is.
Thus, steps 1) and 2) will be done for each of the dilutions.

[1] = tested on: genes specific for sensitization (BRAK, CTSS, DAPK2, FABP4, HSP27, IL18, HSP90, IL1R2, TPSAB1, CXCR1, DEFB1, DHFR, EHF, IVL, KRT4, MELANA, NGAL, PDZK1IP1, PI3 …); assay: Expression of the other (non-ARE) sensitization-specific genes in EPISKIN reconstructed skin (quantitative RT-PCR); type: cell-based, human;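 for CTSS NUMBER OF GENES grade: grade scored against expression in the control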;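 for CXCR1 NUMBER OF GENES grade: grade scored against expression in the control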;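 for DAPK2 NUMBER OF GENES grade: grade scored against expression in the control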

`O=CC=O` [Glyoxal] was tested, and the “sensitizing potential (conclusion)” value (EPISKIN model; 0.1%) was “Sensitizing”, the “sensitizing potential (conclusion)” value (EPISKIN model; 1%) was “Sensitizing” and the “sensitizing potential (conclusion)” value (EPISKIN model; 10%) was “Sensitizing”. For the same molecule, the “sensitizing potential (conclusion)” value (EPISKIN model; 50%) was “Sensitizing”, the “sensitizing power (class)” value (EPISKIN model; from successive dilutions) was “MODERATE” and the “BRAK NUMBER OF GENES grade” value ([1]; 0.1%) was 0 (if this expression is lower, the grade is 0). For the same molecule, the “CTSS NUMBER OF GENES grade” value ([1]; 0.1%) was 0 (if this expression is lower, the grade is 0), the “CXCR1 NUMBER OF GENES grade” value ([1]; 0.1%) was 0 (if this expression is lower, the grade is 0) and the “DAPK2 NUMBER OF GENES grade” value ([1]; 0.1%) was 0 (if this expression is lower, the grade is 0). For the same molecule, the “DEFB1 NUMBER OF GENES grade” value ([1]; 0.1%) was 0 (if this expression is lower, the grade is 0), the “DHFR NUMBER OF GENES grade” value ([1]; 0.1%) was 0 (if this expression is lower, the grade is 0) and the “EHF NUMBER OF GENES grade” value ([1]; 0.1%) was 0 (if this expression is lower, the grade is 0). The “FABP4 NUMBER OF GENES grade” value ([1]; 0.1%) was 0 (if this expression is lower, the grade is 0), the “HSP27 NUMBER OF GENES grade” value ([1]; 0.1%) was 0 (if this expression is lower, the grade is 0) and the “HSP90 NUMBER OF GENES grade” value ([1]; 0.1%) was 0 (if this expression is lower, the grade is 0). For the same molecule, the “IL18 NUMBER OF GENES grade” value ([1]; 0.1%) was 0 (if this expression is lower, the grade is 0), the “IVL NUMBER OF GENES grade” value ([1]; 0.1%) was 0 (if this expression is lower, the grade is 0) and the “KRT4 NUMBER OF GENES grade” value ([1]; 0.1%) was 0 (if this expression is lower, the grade is 0). The “MELANA NUMBER OF GENES grade” value ([1]; 0.1%) was 0 (if this expression is lower, the grade is 0), the “NGAL NUMBER OF GENES grade” value ([1]; 0.1%) was 0 (if this expression is lower, the grade is 0) and the “P13 NUMBER OF GENES grade” value ([1]; 0.1%) was 0 (if this expression is lower, the grade is 0). For the same molecule, the “PDZK1iP1 NUMBER OF GENES grade” value ([1]; 0.1%) was 0 (if this expression is lower, the grade is 0), the “SENS >1.3 (number of genes)” value ([1]; 0.1%) was 0 and the “SERPINB3 NUMBER OF GENES grade” value ([1]; 0.1%) was 0 (if this expression is lower, the grade is 0). The “TOTAL SENS (number of genes)” value ([1]; 0.1%) was 0, the BRAK expression ([1]; 0.1%, compared to the control) was 0.6 and the CTSS expression ([1]; 0.1%, compared to the control) was 1.0. It also gave a CXCR1 expression ([1]; 0.1%, compared to the control) of 1.1, a DAPK2 expression ([1]; 0.1%, compared to the control) of 0.9 and a DEFB1 expression ([1]; 0.1%, compared to the control) of 0.8. For the same molecule, the DHFR expression ([1]; 0.1%, compared to the control) was 0.9, the EHF expression ([1]; 0.1%, compared to the control) was 0.8 and the FABP4 expression ([1]; 0.1%, compared to the control) was 0.4. For the same molecule, the HSP27 expression ([1]; 0.1%, compared to the control) was 0.7, the HSP90 expression ([1]; 0.1%, compared to the control) was 1.0 and the IL18 expression ([1]; 0.1%, compared to the control) was 0.8. The IVL expression ([1]; 0.1%, compared to the control) was 0.7, the KRT4 expression ([1]; 0.1%, compared to the control) was 0.9 and the MELANA expression ([1]; 0.1%, compared to the control) was 0.5. For the same molecule, the NGAL expression ([1]; 0.1%, compared to the control) was 0.7, the P13 expression ([1]; 0.1%, compared to the control) was 0.8 and the PDZK1iP1 expression ([1]; 0.1%, compared to the control) was 0.9. For the same molecule, the SERPINB3 expression ([1]; 0.1%, compared to the control) was 1.0, the “BRAK NUMBER OF GENES grade” value ([1]; 1%) was 0 (if this expression is lower, the grade is 0) and the “CTSS expression compared to control” value ([1]; 1%) was 1.3. For the same molecule, the “CTSS grade (NUMBER OF GENES)” value ([1]; 1%) was 1 (If the expression is greater than 1.3 compared to the control, a grade of 11s given), the “CXCR1 expression compared to control” value ([1]; 1%) was 1.6 and the “CXCR1 grade (NUMBER OF GENES)” value ([1]; 1%) was 1 (If the expression is greater than 1.3 compared to the control, a grade of 11s given). For the same molecule, the “DAPK2 expression compared to control” value ([1]; 1%) was 0.9, the “DAPK2 grade (NUMBER OF GENES)” value ([1]; 1%) was 0 (if this expression is lower, the grade is 0) and the “DEFB1 expression compared to control” value ([1]; 1%) was 1.4. The “DEFB1 grade (NUMBER OF GENES)” value ([1]; 1%) was 1 (If the expression is greater than 1.3 compared to the control, a grade of 11s given), the “DHFR NUMBER OF GENES grade” value ([1]; 1%) was 0 (if this expression is lower, the grade is 0) and the “EHF expression compared to control” value ([1]; 1%) was 0.9. The “EHF grade (NUMBER OF GENES)” value ([1]; 1%) was 0 (if this expression is lower, the grade is 0), the “FABP4 expression compared to control” value ([1]; 1%) was 0.8 and the “FABP4 grade (NUMBER OF GENES)” value ([1]; 1%) was 0 (if this expression is lower, the grade is 0). For the same molecule, the “HSP27 expression compared to control” value ([1]; 1%) was 0.8, the “HSP27 grade (NUMBER OF GENES)” value ([1]; 1%) was 0 (if this expression is lower, the grade is 0) and the “HSP90 NUMBER OF GENES grade” value ([1]; 1%) was 0 (if this expression is lower, the grade is 0). For the same molecule, the “IL18 NUMBER OF GENES grade” value ([1]; 1%) was 0 (if this expression is lower, the grade is 0), the “IVL expression compared to control” value ([1]; 1%) was 1.7 and the “IVL grade (NUMBER OF GENES)” value ([1]; 1%) was 1 (If the expression is greater than 1.3 compared to the control, a grade of 11s given). For the same molecule, the “KRT4 NUMBER OF GENES grade” value ([1]; 1%) was 0 (if this expression is lower, the grade is 0), the “MELANA NUMBER OF GENES grade” value ([1]; 1%) was 0 (if this expression is lower, the grade is 0) and the “NGAL expression compared to control” value ([1]; 1%) was 0.6. The “NGAL grade (NUMBER OF GENES)” value ([1]; 1%) was 0 (if this expression is lower, the grade is 0), the “P13 expression compared to control” value ([1]; 1%) was 1.4 and the “P13 grade (NUMBER OF GENES)” value ([1]; 1%) was 1 (If the expression is greater than 1.3 compared to the control, a grade of 11s given). The “PDZK1iP1 NUMBER OF GENES grade” value ([1]; 1%) was 0 (if this expression is lower, the grade is 0), the “SENS >1.3 (number of genes)” value ([1]; 1%) was 6 and the “SERPINB3 NUMBER OF GENES grade” value ([1]; 1%) was 0 (if this expression is lower, the grade is 0). For the same molecule, the “TOTAL SENS (number of genes)” value ([1]; 1%) was 6, the BRAK expression ([1]; 1%, compared to the control) was 0.5 and the DHFR expression ([1]; 1%, compared to the control) was 0.9. It also gave an HSP90 expression ([1]; 1%, compared to the control) of 1.1, an IL18 expression ([1]; 1%, compared to the control) of 1.0 and a KRT4 expression ([1]; 1%, compared to the control) of 0.6.
